The values that follow come from patent US10828326B2, “Compositions and methods for treating and preventing venom related poisoning” (priority 2015, dated 2020).

The subject of this experiment is C. atrox venom. Kind of experiment: Isolated venom exposure to FeCl3, CORM-2 or iCORM-2, then thrombelastography in human plasma (Example VI). Format: biochemical, Crotalus atrox. To be noted: in words. As for the experimental part:
C. atrox venom was obtained from the National Natural Toxins Research Center at Texas A&M University-Kingsville, Tex., USA. Venom was reconstituted in calcium-free phosphate buffered saline (PBS, Sigma-Aldrich, Saint Louis, Mo., USA), and stored at −80° C. Pooled human normal plasma anticoagulated with sodium citrate was obtained from George King Bio-Medical, Overland Park, Kans., USA. Ferric chloride (FeCl3, 99.9% pure), tricarbonyldichlororuthenium (II) dimer (CORM-2), and dimethyl sulfoxide (DMSO) were obtained from Sigma-Aldrich. The final concentrations of FeCl3 (dissolved in PBS) and CORM-2 (dissolved in DMSO) were 0-10 μM and 0-100 μM, respectively; these were the concentrations used in previous works involving the effects of modifying fibrinogen prior to venom exposure in plasma.
To increase the detection of effects of iron/CO on venom activity, the concentration of venom chosen for isolated exposure and for addition to plasma was twice the amount expected to eliminate coagulation based on previous work (see, Nielsen V G, Boyer L V. Iron and carbon monoxide attenuate degradation of plasmatic coagulation by Crotalus atrox venom. Blood Coagul Fibrinolysis. In press). A 1 ml quantity of a 200 μg/ml solution of venom in PBS was prepared for each condition subsequently presented. The conditions were: 1) 1% addition (v/v) of PBS and DMSO to PBS without venom; 2) 1% addition (v/v) of PBS and DMSO to PBS with venom; 3) 1% addition of FeCl3 and CORM-2 to PBS without venom; 4) 1% addition of FeCl3 and CORM-2 to PBS […]) 1% addition of FeCl3 and DMSO to PBS with venom; 6) 1% addition of CORM-2 to PBS with venom; and lastly, 7) 1% addition of PBS and iCORM-2 to PBS with venom. After 3 min of incubation at room temperature, 3.6 μl of solution from one of these conditions was placed into 326 μl of plasma and 10 μl of tissue factor reagent (0.1% final concentration in distilled water; Diagnostica Stago S.A.S., Asnieres sur Seine, France) in a disposable cup in a computer-controlled Thrombelastograph® hemostasis system (Model 5000, Haemonetics Inc., Braintree, Mass., USA). After test solution addition, 20 μl of 200 mM CaCl2 was immediately added to initiate clotting. Data were collected at 37° C. for 15 min. […] 2014; 25(8):801-805) were determined: time to maximum rate of thrombus generation (TMRTG): this is the time interval (min) observed prior to maximum speed of clot growth; maximum rate of thrombus generation (MRTG): this is the maximum velocity of clot growth observed (dynes/cm^2/sec); and total thrombus generation (TTG, dynes/cm^2), the final viscoelastic resistance observed after clot formation. […]

Take `[Cl][Fe]([Cl])[Cl]` [iron, ferric chloride]: the “effects on C. atrox venom activity on plasmatic coagulation” value (isolated venom exposure) is given as “no appreciable effects”. Further, the “coagulation kinetic parameters of plasma after addition of PBS with venom exposed to the agent” value (venom 2 μg/ml final, 10 μM FeCl3, 100 μM CORM-2 or iCORM-2) was “absence of coagulation not different from samples exposed to venom alone”.
